Laboratory results from US8399520B2, “Selective estrogen receptor modulator” (Eisai R&D Management Co., Ltd., priority 2002, dated 2013).

Assays:
[1] = target: T1, estrogen receptor derived from bovine uterus (Bos taurus, UniProt P49884); test: In vitro estrogen receptor binding assay; details: read-out: Estrogen receptor binding affinity: Ki
T1 construct: estrogen receptor derived from bovine uterus was diluted with the assay buffer solution so that 10 to 20 μg total protein was present; from tissue; host or cells: bovine uterus
T1 sequence (P49884 1-596): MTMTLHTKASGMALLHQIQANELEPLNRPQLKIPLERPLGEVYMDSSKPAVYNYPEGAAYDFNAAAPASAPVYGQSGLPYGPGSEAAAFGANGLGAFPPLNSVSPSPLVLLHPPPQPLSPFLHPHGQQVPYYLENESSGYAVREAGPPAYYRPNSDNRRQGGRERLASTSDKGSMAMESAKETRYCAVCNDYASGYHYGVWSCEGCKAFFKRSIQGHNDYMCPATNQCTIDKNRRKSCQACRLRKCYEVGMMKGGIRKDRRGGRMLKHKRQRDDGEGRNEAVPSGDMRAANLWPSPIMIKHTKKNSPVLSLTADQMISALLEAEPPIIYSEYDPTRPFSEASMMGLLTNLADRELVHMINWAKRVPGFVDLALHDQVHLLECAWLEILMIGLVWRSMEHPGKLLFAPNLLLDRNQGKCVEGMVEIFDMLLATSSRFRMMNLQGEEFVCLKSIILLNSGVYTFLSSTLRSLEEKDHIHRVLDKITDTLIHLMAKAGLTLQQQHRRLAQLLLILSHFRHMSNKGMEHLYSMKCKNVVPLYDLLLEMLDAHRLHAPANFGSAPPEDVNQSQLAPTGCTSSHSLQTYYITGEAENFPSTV
Description: The binding affinity of the compound according to the present invention to estrogen receptor was measured using an in vitro estrogen receptor binding assay. The binding affinity measures the ability of the compound according to the present invention to remove [^3H]-estradiol from estrogen receptor derived from bovine uterus. The following materials were used in this assay: (1) the assay buffer solution was 20 mM Tris/HCl (pH 7.5) containing 1 mM dithiothreitol (DTT), 1 mM EDTA and 10% glycerol; (2) radioactive ligand was [^3H]-estradiol purchased from Amersham Life Science; (3) the cold ligand was diethylstilbestrol purchased from sigma (Sigma); and (4) the estrogen receptor was derived from bovine uterus. The compound to be tested was prepared as a 10% DMSO solution. [^3H]-estradiol was dissolved in the assay buffer solution so as to obtain a final concentration of 1 nM. […] Each plate contains total binding, non-specific binding and the binding which were not inhibited by various concentrations of the compound. The plate was incubated for 1 hour at room temperature. […] These mixtures were centrifuged, and the supernatant thereof was evaluated for its radioactivity using a liquid scintillation counter. Specific binding was calculated by subtracting non-specific binding dpm (counts remaining in the supernatant obtained by centrifugal separation of a reaction mixture containing estrogen receptor derived from bovine uterus, radioactive ligand and excess cold ligand) from the total binding dpm (counts remaining in the supernatant obtained by centrifugal separation of a reaction mixture containing estrogen receptor derived from bovine uterus and radioactive ligand only). The effectiveness of the compound was evaluated by Ki. […] C is the concentration of [^3H]-estradiol in the reaction mixture, and Kd is the [^3H]-estradiol dissociation constant. The Kd was determined by Scatchard analysis. That is to say, various concentrations of [^3H]-estradiol were used to measure the concentration of specifically bound [^3H]-estradiol, which served as the horizontal axis, the value which was obtained by dividing the concentration of specifically bound [^3H]-estradiol by the concentration [^3H]-estradiol not bound to the receptor served as the vertical axis to produce a plot, and the negative value of the inverse of the slope of the resulting straight line was used as Kd.

[2] = test system: MCF-7 breast cancer cells; test: MCF-7 growth analysis (estrogen agonist and antagonist activity, MTT assay); type: cell-based; details: Homo sapiens; for activity at 0.1 µM: MCF7, MCF-7, 72 hours, growth rate of diluent control = 100, of 17β-estradiol (1 nM) = 200, read-out: Agonist activity: growth rate (100 nM test compound); for IC50: MCF7, MCF-7 growth with 17β-estradiol (10 pM) present simultaneously, 72 hours
Description: Test Example 2 determines the estrogen agonist and antagonist activities of the compound according to the present invention in reproduction system cells. […] The present test was carried out according to the following procedures. MCF-7 breast cancer cells were cultured in the preservation medium until the compound evaluation. The preservation medium is the MEM (minimum essential medium, phenol red-free, Gibco, ##51200-038) supplemented with 10% (volume/volume) fetal bovine serum (FBS), 2 mM L-glutamine, 1 mM sodium pyruvate, non-essential amino acids (0.1 mM, Gibco, #15240-062), and antibiotic-antimycotic solution ( 1/50 of culture medium volume, Gibco). Five days prior to analysis, the preservation medium was exchanged with analytical medium to which 10% charcoal-stripped fetal bovine serum (charcoal-FBS) was added instead of 10% FBS, so as to deprive the MCF-7 cells of endogenous steroids. Twenty-four hours after exchange to the analytical medium, the MCF-7 cells were removed from the preservation flask using cell isolation medium (trypsin-EDTA solution, Gibco). The cells were washed with analytical medium once, and cell suspension at 50,000 cell/ml was prepared using the analytical medium. The prepared cell suspension was added to a 96 well flat-bottomed microculture at […] (5,000 cells) per well, the cells were cultured in a 5% CO2 incubator for 24 hours at 37° C., to equilibrate the cells after cell transfer. […] The cells were further cultured in the 5% CO2 incubator for 72 hours at 37° C. After culturing, the cell growth was examined by the MTT assay. MTT assay was carried out as the following protocols. MTT solution at 8 mg/ml (MTT dissolved in phosphate saline water buffer) was added to the microculture at 10 μl/well, and the cells were cultured in the 5% CO2 incubator for 30 minutes at 37° C. Thereafter, resulting from the reduction of MTT by the cells, formazan crystals were dissolved by adding a dissolution buffer (400 g/l of an aqueous solution of SDS (50%) and dimethylformamide (50%)) to the microculture at 100 μl/well, and incubated the microculture for more than 4 hours in the dark. For each well of the microculture, the optical density at 590 nm due to the dissolved formazan crystals was measured.

[3] = test system: ovariectomized rats; test: Bone resorption in ovariectomized rats: deoxypyridinoline in urine; type: in vivo, rat; details: OVX rats, urine
From the text: (§1) Ten weeks old Female Fischer rats (F344/N, Japan SLC, Shizuoka, Japan) were used. Rats were grouped to eliminate the effect of body weight between each group and housed with free access to food and water. Animals were anesthetized with Nembutal (Abbott Laboratories, Chicago, Ill.) and the ovaries were removed. In sham-operated group, ovaries were only touched with tweezers. Administration of compounds was started one day after the operation.
(§2) Estradiol (Sigma-Aldrich, St. Louis, Mo.) was dissolved in DMSO to 150 mg/mL then diluted with sesame oil to 0.15 mg/mL. The compounds in Examples 736 and 814, and Raloxifene were suspended in sesame oil to 5, 5 and 1.5 mg/mL, respectively. Samples were divided into aliquots for daily administration and preserved at −18° C. until use.
(§3) The samples were orally administered at 2 mL/kg. Administration was carried out once a day from Monday to Friday for 8 weeks.
Urine was gathered overnight (17 hours) using the metabolic cage under fasting. The amount of urinary deoxypyridinoline was measured with ELISA kit, Osteorincs-DPD (Sumitomo Seiyaku Biomedical Co., Ltd., Osaka, Japan) and evaluated as total amount produced in 17 hours or as the amount per 1 mg of creatinine.

[4] = test system: ovariectomized rats; test: Ovariectomized rats: bone density of femur and fifth lumbar vertebrae; type: in vivo, rat; details: OVX rats, 8 weeks
From the text: as §1, §2, §3
After animals were sacrificed by decapitation, left femur and the fifth lumbar vertebrae were removed. The bone density was measured by using QDR-1000/W (Ho logic Inc., Bedford, Mass.).

[5] = test system: ovariectomized rats; test: Ovariectomized rats: uterus wet weight; type: in vivo, rat
From the text: as §1, §2, §3
After animals were sacrificed by decapitation, uterus was removed and adipose tissue and vagina was separated from uterus prior to uterus weight measurement.

[6] = 3 mg/kg orally once a day Monday to Friday
[7] = 0.3 mg/kg orally once a day Monday to Friday

Ki [1] [nM] | IC50 [2] [nM] | Structure (SMILES) | activity at 0.1 µM [2] [%] | also measured
1 | 7.95 | CCN(Cc1ccc(OCCN2CCCCCC2)cc1)c1cc(O)ccc1[C@@H]1CCc2cc(O)ccc2C1 [190 (R), (R)-6-{2-{[4-(2-azepan-1-ylethoxy)benzyl]ethylamino}-4-hydroxyphenyl}-5,6,7,8-tetrahydronaphthalen-2-ol] | 124 | 
 |  | O=C(c1ccc(OCCN2CCCCC2)cc1)c1c(-c2ccc(O)cc2)sc2cc(O)ccc12 [Raloxifene, 6-hydroxy-2-(4-hydroxyphenyl)-3-[4-(2-piperidinoethoxy)benzoyl]benz[b]thiophene, reference compound] |  | Deoxypyridinoline, 5 weeks [3, 6]: 8.83 ± 0.41 nM/mg/dl; Deoxypyridinoline, 8 weeks [3, 6]: 10.87 ± 1.16 nM/mg/dl; Bone Mineral Density, Distal femur ([4]; 3 mg/kg orally): 0.254 ± 0.002 g/cm^2; Bone Mineral Density, Lumber 5 ([4]; 3 mg/kg orally): 0.160 ± 0.003 g/cm^2; Bone Mineral Density, Whole femur ([4]; 3 mg/kg orally): 0.239 ± 0.002 g/cm^2; Effect on uterus wet weight (in words) ([5]; rat, in vivo): slightly increased uterus wet weight to the same level
2.9 | 2.9 | CCOCCN(C)CCOc1ccc(CN(CC)c2cc(OC)ccc2[C@@H]2CCc3cc(O)ccc3C2)cc1 [Example 618, (R)-6-{2-{{4-{2-[(2-Ethoxyethyl)methylamino]ethoxy}benzyl}ethylamino}-4-methoxyphenyl}-5,6,7,8-tetrahydronaphthalen-2-ol] | 96 | 
1.4 | 1.4 | CCN(Cc1ccc(CCN2CCCCCC2)cn1)c1cc(OC)c(OC)cc1C1CCc2cc(O)ccc2C1 (stereo not shown) [Example 255, 6-{2-{[5-(2-Azepan-1-ylethyl)pyridin-2-ylmethyl]ethylamino}-4,5-dimethoxyphenyl}-5,6,7,8-tetrahydronaphthalen-2-ol] | 106 | 
 |  | CC/C(=C(\c1ccccc1)c1ccc(OCCN(C)C)cc1)c1ccccc1 [Comparative Example, Tamoxifen, reference compound] | 133 | 
0.2 | 2.06 | CCN(Cc1ccc(CCN(C)C)cc1)c1cc(OC)c(OC)cc1[C@@H]1CCc2cc(O)ccc2C1 [Example 741, (R)-6-{2-{[4-(2-Dimethylaminoethyl)benzyl]ethylamino}-4,5-dimethoxyphenyl}-5,6,7,8-tetrahydronaphthalen-2-ol] | 98 | 
 |  | C[C@]12CC[C@@H]3c4ccc(O)cc4CC[C@H]3[C@@H]1CC[C@@H]2O [Estradiol, reference compound] |  | Deoxypyridinoline, 5 weeks [3, 7]: 12.06 ± 1.60 nM/mg/dl; Deoxypyridinoline, 8 weeks [3, 7]: 11.61 ± 2.10 nM/mg/dl; Bone Mineral Density, Distal femur ([4]; 0.3 mg/kg orally): 0.250 ± 0.001 g/cm^2; Bone Mineral Density, Lumber 5 ([4]; 0.3 mg/kg orally): 0.150 ± 0.005 g/cm^2; Bone Mineral Density, Whole femur ([4]; 0.3 mg/kg orally): 0.237 ± 0.001 g/cm^2; Uterus (wet weight) ([5]; OVX rats, 0.3 mg/kg orally, 8 weeks): 0.213 ± 0.013 g
2.8 | 4.12 | CCN(Cc1ccc(CCN2CCCCCC2)s1)c1cc(OC)c(OC)cc1[C@@H]1CCc2cc(O)ccc2C1 [Example 259, (R)-6-{2-{[5-(2-Azepan-1-ylethyl)thiophen-2-ylmethyl]ethylamino}-4,5-dimethoxyphenyl}-5,6,7,8-tetrahydronaphthalen-2-ol] | 103 | 
1.6 |  | Oc1ccc(-c2nc3ccc(O)cc3s2)c(NCc2ccc(OCCN3CCCCC3)cc2)c1 [Example 319, 2-{4-Hydroxy-2-[4-(2-piperidin-1-ylethoxy)benzylamino]phenyl}benzothiazol-6-ol] |  | 
1.1 |  | CCNCCOc1ccc(CN(CC)c2cc(O)ccc2C2CCc3cc(O)ccc3C2)cc1 (stereo not shown) [Example 379, 6-{2-{Ethyl[4-(2-ethylaminoethoxy)benzyl]amino}-4-hydroxyphenyl}-5,6,7,8-tetrahydronaphthalen-2-ol] |  | 
2.3 | 2.62 | CCN(Cc1ccc(OCCN2CCCCCC2)nc1)c1cc(OC)ccc1[C@@H]1CCc2cc(O)ccc2C1 [Example 228, (R)-6-{2-{[6-(2-Azepan-1-ylethoxy)pyridin-3-ylmethyl]ethylamino}-4-methoxyphenyl}-5,6,7,8-tetrahydronaphthalen-2-ol] | 101 | 
3.1 |  | CCN(Cc1ccc(OCCN2CCCCC2)c(F)c1)c1cc(O)ccc1-c1cc2ccc(O)cc2s1 [Example 322, 2-{2-{Ethyl[3-fluoro-4-(2-piperidin-1-ylethoxy)benzyl]amino}-4-hydroxyphenyl}benzo[b]thiophen-6-ol] |  | 
